Assay [1] has as its target T1, Fatty acid-binding protein, adipocyte (Homo sapiens, UniProt P15090). Kind of assay: Displacement of 8-anilino-1-naphthalene-sulfonic acid from human His-FABP4 expressed in Escherichia coli BL21 (DE3) cells after 3 mins.
Target sequence in this assay (P15090 whole entry): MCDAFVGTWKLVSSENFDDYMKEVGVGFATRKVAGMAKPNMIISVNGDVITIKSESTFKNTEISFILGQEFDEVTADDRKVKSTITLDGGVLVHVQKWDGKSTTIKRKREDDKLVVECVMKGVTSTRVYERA
Assay [2] has as its target T1, Fatty acid-binding protein, adipocyte. Kind of assay: Displacement of 8-anilino-1-naphthalene-sulfonic acid from human His-FABP4 expressed in Escherichia coli BL21 (DE3) cells at 100 uM after 3 mins.
Target sequence in this assay (P15090 2-132 limits assumed): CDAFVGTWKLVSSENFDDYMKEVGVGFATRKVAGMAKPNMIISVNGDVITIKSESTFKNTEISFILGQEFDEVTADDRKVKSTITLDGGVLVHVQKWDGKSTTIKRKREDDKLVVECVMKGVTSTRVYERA
For assay [3], the species on record is Homo sapiens. Briefly: Selectivity index, ratio of IC50 for His-human FABP3 to IC50 for human His-FABP4.
For assay [4], the target named is Fatty acid-binding protein, heart (Homo sapiens, UniProt P05413). Kind of assay: Displacement of 8-anilino-1-naphthalene-sulfonic acid from human His-FABP3 expressed in Escherichia coli BL21 (DE3) cells after 3 mins relative to linoleic acid.
Assay [5] has as its target T1, Fatty acid-binding protein, adipocyte. Kind of assay: Displacement of 8-anilino-1-naphthalene-sulfonic acid from human His-FABP4 expressed in Escherichia coli BL21 (DE3) cells after 3 mins relative to linoleic acid.
Target sequence in this assay (P15090 whole entry): as the sequence (P15090 whole entry) above
In assay [6] the test system is BL21-DE3. Briefly: Displacement of 8-anilino-1-naphthalene-sulfonic acid from human FABP4 F16A mutant expressed in Escherichia coli BL21 (DE3) cells at 700 uM after 3 mins.
For assay [7], the system named is BL21-DE3. Kind of assay: Displacement of 8-anilino-1-naphthalene-sulfonic acid from human FABP4 F16A mutant expressed in Escherichia coli BL21 (DE3) cells at 500 uM after 3 mins.
The species named for assay [8] is Homo sapiens. Kind of assay: Selectivity ratio of IC50 for human FABP4 F106A mutant to IC50 for human wild type FABP4.
For assay [9], the species on record is Homo sapiens. Briefly: Selectivity ratio of IC50 for human FABP4 F126A mutant to IC50 for human wild type FABP4.
Assay [10] can be described thus: Displacement of 8-anilino-1-naphthalene-sulfonic acid from human FABP4 F16A mutant expressed in Escherichia coli BL21 (DE3) cells after 3 mins.

Sequence of Fatty acid-binding protein, heart (P05413 whole entry): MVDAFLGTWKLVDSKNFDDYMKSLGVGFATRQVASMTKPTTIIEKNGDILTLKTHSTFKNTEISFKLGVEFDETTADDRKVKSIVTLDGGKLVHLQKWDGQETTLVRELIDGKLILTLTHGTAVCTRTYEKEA

As to `O=c1[nH]nc(SCCS(=O)(=O)c2ccc(Cl)cc2Cl)n1-c1ccc2c(c1)OCCO2`, in [1], the IC50 was more than 100 µM. This compound also registered an inhibition in assay [2] of 37.1%.

As for `O=C(O)CSCC(=O)Nc1ccc(F)c(Cl)c1`, the values for the IC50 in [1], in assay [4] and in [5] were 59.5 µM, more than 432 µM and 4.4 µM, respectively. The Ratio IC50 in the assay listed under Homo sapiens [3] is more than 99. Also, in assay [2], the inhibition was found to be 56.2%.

In turn, `COC(=O)c1cc(OC)c(OC)cc1NC(=O)CSCC(=O)O` yielded an IC50 in [1] of more than 100 µM. The compound further came in with an inhibition in [2] of 46.9%.

The compound `O=[N+]([O-])c1ccc(S(=O)(=O)c2ccccc2)cc1OS(=O)(=O)c1cc(Cl)cc(Cl)c1` gave an IC50 in assay [1] of more than 100 µM. The inhibition in assay [2] was determined as 40.7%.

With `COc1ccc(-c2c(C(F)(F)F)nn(C)c2NC(=O)CSCC(=O)O)cc1`, the IC50 in assay [1] was more than 100 µM. The compound also yielded an inhibition in assay [2] of 20.1%.

`Cc1ccc(SC(CC(=O)c2ccc(C)cc2)C(=O)O)cc1` (stereo not drawn) came in with an IC50 in [1] of more than 100 µM. In assay [2], this compound had an inhibition of 44.4%.

Take `O=C(O)CSCC(=O)Nc1cc(Cl)cc(Cl)c1`: the IC50 is 13.5 µM in assay [1], more than 144 µM in assay [4] and 1 µM in [5]. For the same compound, the Ratio IC50 was more than 144 in the assay filed under Homo sapiens [3], 1.3 in the assay listed under Homo sapiens [8] and 11.1 in the assay filed under Homo sapiens [9]. For the same compound, the inhibition in the assay on BL21-DE3 [6] came out at 57%; in [2], 84.9%; in the assay with BL21-DE3 [7], 50.7%.

Compound `c1cc(CSc2nc3ccccc3[nH]2)nc(CSc2nc3ccccc3[nH]2)c1` had an IC50 in [1] of more than 100 µM. For the same compound, the inhibition in assay [2] was determined as 47.7%.

On to `O=C(O)CSCC(=O)NCc1c(Cl)cccc1Oc1ccccc1`, for which the IC50 in assay [1] was 42.2 µM; in assay [4], 1.9 µM; in assay [10] it was 76.5 µM; in assay [5], 3.1 µM. The values for the Ratio IC50 in the assay listed under Homo sapiens [3], in the assay listed under Homo sapiens [8] and in the assay listed under Homo sapiens [9] were 0.6, 3.4 and 6.6, respectively. Further, the inhibition in [2] was determined as 62.5%.

`O=C(O)CSCC(=O)NCc1ccccc1N1CCCCC1`: the IC50 is 56.3 µM in assay [1], 6.3 µM in [4] and 4.1 µM in [5]. Further, the Ratio IC50 in the assay filed under Homo sapiens [3] stood at 1.5. The inhibition in [2] came to 58.7%.

In assay [2], `CCCCCCCC/C=C\CCCCCCCC(=O)O` displayed an inhibition of 66.8%.

With `CCCCC/C=C\C/C=C\CCCCCCCC(=O)O`, the inhibition worked out at 39% with BL21-DE3 [6], 81.4% in [2] and 36.9% in the assay on BL21-DE3 [7].

(Values after ChEMBL document CHEMBL1155532 (Bioorg Med Chem Lett, 2010).)
